In publication PMC4506557 (Chemmedchem, 2014):

Columns and labels:
Format in all cases: biochemical
Details in all cases: at 10 μM; single dose, triplicate
[1] = system: MMP-2; experiment: MMP-2 fluorometric FRET protease assay
[2] = system: MMP-14; experiment: MMP-14 fluorometric FRET protease assay
[3] = system: MMP-12; experiment: MMP-12 fluorometric FRET protease assay
[4] = system: MMP-9; experiment: MMP-9 fluorometric FRET protease assay
[5] = system: MMP-3; experiment: MMP-3 fluorometric FRET protease assay
[6] = system: MMP-7; experiment: MMP-7 fluorometric FRET protease assay
[7] = system: MMP-1; experiment: MMP-1 fluorometric FRET protease assay
[8] = system: MMP-8; experiment: MMP-8 fluorometric FRET protease assay

O=C(O)CCCOc1cccc(CNC(=O)C#Cc2cn(Cc3ccc(C(=O)O)cc3)c(=O)[nH]c2=O)c1 [Compound 4, 4-({5-[2-({[3-(3-carboxypropoxy)phenyl]methyl}carbamoyl)eth-1-yn-1-yl]-2,4-dioxo-1,2,3,4-tetrahydropyrimidin-1-yl}methyl)benzoic acid]
<50 % inhibition at 10 μM: MMP-2 inhibition [1] | MMP-14 inhibition [2] | MMP-12 inhibition [3] | MMP-9 inhibition [4] | MMP-3 inhibition [5] | MMP-7 inhibition [6] | MMP-1 inhibition [7] | MMP-8 inhibition [8]
